Structures are written as SMILES. Read-outs that look alike come from different tables or passages of the source. Bounds are passed on as bounds.

Experimental findings from patent US20250122223A1, “HETEROCYCLIC COMPOUNDS AS UBIQUITIN SPECIFIC PROTEASE 7 INHIBITORS” (ALMAC DISCOVERY LIMITED, priority 2022, published 2025) are described below.

For the experiment, the target named is USP7 (Homo sapiens (Human), UniProt Q93009). The experiment is described as follows: USP7 fluorescence polarisation (FP) assay with ubiquitin-Lys-TAMRA substrate. The format is biochemical. The following applies: biochemical inhibition.
USP7, sequence (Q93009 whole entry): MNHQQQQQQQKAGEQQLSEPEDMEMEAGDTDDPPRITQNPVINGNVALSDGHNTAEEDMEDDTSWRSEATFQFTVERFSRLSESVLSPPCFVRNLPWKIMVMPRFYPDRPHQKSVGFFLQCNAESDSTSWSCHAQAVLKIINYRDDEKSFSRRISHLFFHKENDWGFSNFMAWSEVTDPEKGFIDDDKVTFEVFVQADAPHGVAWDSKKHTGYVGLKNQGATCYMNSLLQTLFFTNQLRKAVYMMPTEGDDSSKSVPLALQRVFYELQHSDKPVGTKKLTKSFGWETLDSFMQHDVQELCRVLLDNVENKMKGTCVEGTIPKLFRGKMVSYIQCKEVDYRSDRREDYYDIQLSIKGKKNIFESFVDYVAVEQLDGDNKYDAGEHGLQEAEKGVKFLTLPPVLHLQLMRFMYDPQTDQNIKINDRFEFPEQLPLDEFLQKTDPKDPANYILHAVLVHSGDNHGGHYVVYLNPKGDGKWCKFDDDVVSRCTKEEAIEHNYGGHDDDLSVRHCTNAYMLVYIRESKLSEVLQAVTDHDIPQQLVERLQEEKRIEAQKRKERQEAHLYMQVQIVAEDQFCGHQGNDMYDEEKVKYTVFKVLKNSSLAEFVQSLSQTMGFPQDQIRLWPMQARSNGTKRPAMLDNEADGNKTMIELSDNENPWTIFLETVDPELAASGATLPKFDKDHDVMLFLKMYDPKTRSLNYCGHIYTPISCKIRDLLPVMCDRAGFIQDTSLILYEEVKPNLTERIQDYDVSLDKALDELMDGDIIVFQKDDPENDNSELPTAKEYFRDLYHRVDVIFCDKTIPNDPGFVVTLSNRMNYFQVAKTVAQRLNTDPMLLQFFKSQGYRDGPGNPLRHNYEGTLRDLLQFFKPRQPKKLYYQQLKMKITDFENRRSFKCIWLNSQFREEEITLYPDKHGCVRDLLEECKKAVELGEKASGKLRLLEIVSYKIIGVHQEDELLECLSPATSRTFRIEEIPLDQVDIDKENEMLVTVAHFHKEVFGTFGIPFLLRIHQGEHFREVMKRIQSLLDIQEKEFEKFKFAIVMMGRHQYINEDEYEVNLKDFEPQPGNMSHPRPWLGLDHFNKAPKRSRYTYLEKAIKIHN
The mark [1] stands for this setting: read-out: USP7 IC50 activity (Table 3a, classes).
Where [2] appears, read: unit not given in Table 3b (Table 1 and key of Table 3a use μM), read-out: USP7 IC50 activity (Table 3b).

With `CC1(C)CN[C@H](c2ccc(-n3c(Cl)cc4c(=O)n(CC5(O)CCN(C(=O)C6(C7CC7)CC6)CC5)cnc43)cc2)CO1` (single isomer, unassigned) [Example 40], the IC50 runs as follows: under setting [1], 0.1 to 0.25 µM; under setting [2], 0.156 µM.
Taken in the same sequence, the figures for `CC1(C(=O)N2CCC(O)(Cn3cnc4c(cc(Cl)n4-c4ccc(C5CNCCO5)cc4)c3=O)CC2)CC1` (stereo not drawn) [Example 88, 6-Chloro-3-((4-hydroxy-1-(1-methylcyclopropane-1-carbonyl)piperidin-4-yl)methyl)-7-(4-(morpholin-2-yl)phenyl)-3,7-dihydro-4H-pyrrolo[2,3-d]pyrimidin-4-one] were 0.1 to 0.25 µM and 0.158 µM.
In the case of `C[C@H]1CN[C@H](c2ccc(-n3c(Cl)cc4c(=O)n(CC5(O)CCN(C(=O)[C@@]6(C)C[C@@H]6C(F)(F)F)CC5)cnc43)cc2)CO1` (single isomer, unassigned) [Example 33, 6-Chloro-3-((4-hydroxy-1-((1R,2R)-1-methyl-2-(trifluoromethyl)cyclopropane-1-carbonyl)piperidin-4-yl)methyl)-7-(4-((3R,6S)-6-methylmorpholin-3-yl)phenyl)-3,7-dihydro-4H-pyrrolo[2,3-d]pyrimidin-4-one or 6-chloro-3-((4-hydroxy-1-((1S,2S)-1-methyl-2-(trifluoromethyl)cyclopropane-1-carbonyl)piperidin-4-yl)methyl)-7-(4-((3R,6S)-6-methylmorpholin-3-yl)phenyl)-3,7-dihydro-4H-pyrrolo[2,3-d]pyrimidin-4-one], the IC50 under setting [1] was 0.1 to 0.25 µM and the IC50 under setting [2] stood at 0.226 µM.
Taken in the same sequence, the figures for `C[C@H]1CN[C@H](c2ccc(-n3c(Cl)cc4c(=O)n(CC5(O)CCN(C(=O)c6ccccc6Cl)CC5)cnc43)cc2)CO1` [Example 31, 6-Chloro-3-((1-(2-chlorobenzoyl)-4-hydroxypiperidin-4-yl)methyl)-7-(4-((3R,6S)-6-methylmorpholin-3-yl)phenyl)-3,7-dihydro-4H-pyrrolo[2,3-d]pyrimidin-4-one] were 0.1 to 0.25 µM and 0.144 µM.
Regarding `C[C@@H]1CN[C@@H](c2ccc(-n3c(Cl)cc4c(=O)n(CC5(O)CCN(C(=O)c6ccccc6)CC5)cnc43)cc2)CO1` [Example 24, 3-((1-Benzoyl-4-hydroxypiperidin-4-yl)methyl)-6-chloro-7-(4-((3S,6R)-6-methylmorpholin-3-yl)phenyl)-3,7-dihydro-4H-pyrrolo[2,3-d]pyrimidin-4-one], the IC50 under setting [1] lay within 0.1 to 0.25 µM and the IC50 under setting [2] is 0.25 µM.
For `C[C@@H]1OCCN[C@H]1c1ccc(-n2c(Cl)cc3c(=O)n(CC4(O)CCN(C(=O)c5ccc(Cl)cc5)CC4)cnc32)cc1` [Example 6, 6-Chloro-3-((1-(4-chlorobenzoyl)-4-hydroxypiperidin-4-yl)methyl)-7-(4-((2S,3S)-2-methylmorpholin-3-yl)phenyl)-3,7-dihydro-4H-pyrrolo[2,3-d]pyrimidin-4-one], in that order: under 0.1 µM and 0.05 µM.
Take `C[C@H]1COC[C@@H](c2ccc(-n3c(Cl)cc4c(=O)n(CC5(O)CCN(C(=O)c6ccc(Cl)cc6)CC5)cnc43)cc2)N1` (single isomer, unassigned) [Example 26]: the IC50 by setting is: under setting [1], 0.1 to 0.25 µM; under setting [2], 0.161 µM.
Turning to `Cc1cc(-n2c(Cl)cc3c(=O)n(CC4(O)CCN(C(=O)c5ccccc5Cl)CC4)cnc32)ccc1[C@H]1CO[C@H](C)CN1` [Example 52, 6-Chloro-3-((1-(2-chlorobenzoyl)-4-hydroxypiperidin-4-yl)methyl)-7-(3-methyl-4-((3S,6R)-6-methylmorpholin-3-yl)phenyl)-3,7-dihydro-4H-pyrrolo[2,3-d]pyrimidin-4-one], the IC50 was 0.1 to 0.25 µM under setting [1] and 0.179 µM under setting [2].
For `O=C(c1ccc(Cl)cc1)N1CCC(O)(Cn2cnc3c(cc(Cl)n3-c3ccc(C4COC5CCCC5N4)cc3)c2=O)CC1` (stereo not drawn) [Example 54, 6-Chloro-3-((1-(4-chlorobenzoyl)-4-hydroxypiperidin-4-yl)methyl)-7-(4-(octahydrocyclopenta[b][1,4]oxazin-3-yl)phenyl)-3,7-dihydro-4H-pyrrolo[2,3-d]pyrimidin-4-one], in that order: 0.1 to 0.25 µM and 0.151 µM.
On to `CC[C@@H]1CN[C@@H](c2ccc(-n3c(Cl)cc4c(=O)n(CC5(O)CCN(C(=O)C6(C)CC6)CC5)cnc43)cc2)CO1` [Example 105, 6-Chloro-7-(4-((3S,6R)-6-ethylmorpholin-3-yl)phenyl)-3-((4-hydroxy-1-(1-methylcyclopropane-1-carbonyl)piperidin-4-yl)methyl)-3,7-dihydro-4H-pyrrolo[2,3-d]pyrimidin-4-one], for which the IC50 under setting [1] is under 0.1 µM and the IC50 under setting [2] was 0.073 µM.
Taken in the same sequence, the figures for `Cc1cc(Cl)ccc1C(=O)N1CCC(O)(Cn2cnc3c(cc(Cl)n3-c3ccc([C@H]4CO[C@H](C)CN4)c(C)c3)c2=O)CC1` [Example 89, 6-Chloro-3-((1-(4-chloro-2-methylbenzoyl)-4-hydroxypiperidin-4-yl)methyl)-7-(3-methyl-4-((3S,6R)-6-methylmorpholin-3-yl)phenyl)-3,7-dihydro-4H-pyrrolo[2,3-d]pyrimidin-4-one] were 0.1 to 0.25 µM and 0.204 µM.
Regarding `C[C@H]1CN[C@H](c2ccc(-n3c(Cl)cc4c(=O)n(CC5(O)CCN(C(=O)/C=C/c6ccccc6)CC5)cnc43)cc2)CO1` [Example 63, 6-Chloro-3-((1-cinnamoyl-4-hydroxypiperidin-4-yl)methyl)-7-(4-((3R,6S)-6-methylmorpholin-3-yl)phenyl)-3,7-dihydro-4H-pyrrolo[2,3-d]pyrimidin-4-one], the IC50 under setting [1] lay in the range of 0.1 to 0.25 µM and the IC50 under setting [2] was determined as 0.221 µM.
For the compound `CC1(C)CN[C@H](c2ccc(-n3c(Cl)cc4c(=O)n(CC5(O)CCN(C(=O)c6ccc(Cl)cc6)CC5)cnc43)cc2)CO1` (single isomer, unassigned) [Example 34], the IC50 runs as follows: under setting [1], under 0.1 µM; under setting [2], 0.088 µM.
Taken in the same sequence, the figures for `Cc1cc(-n2c(Cl)cc3c(=O)n(CC4(O)CCN(C(=O)c5ccc(C(F)(F)F)cc5)CC4)cnc32)ccc1[C@H]1CO[C@H](C)CN1` [Example 56, 6-Chloro-3-((4-hydroxy-1-(4-(trifluoromethyl)benzol)piperidin-4-yl)methyl)-7-(3-methyl-4-((3S,6R)-6-methylmorpholin-3-yl)phenyl)-3,7-dihydro-4H-pyrrolo[2,3-d]pyrimidin-4-one] were 0.1 to 0.25 µM and 0.113 µM.
Take `C[C@H]1CN[C@H](c2ccc(-n3c(Cl)cc4c(=O)n(CC5(O)CCN(C(=O)c6ccc(C(F)(F)F)cc6)CC5)cnc43)cc2)CO1` [Example 65, 6-Chloro-3-((4-hydroxy-1-(4-(trifluoromethyl)benzoyl)Piperidin-4-yl)methyl)-7-(4-((3R,6S)-6-methylmorpholin-3-yl)phenyl)-3,7-dihydro-4H-pyrrolo[2,3-d]pyrimidin-4-one]: the IC50 runs as follows: under setting [1], 0.1 to 0.25 µM; under setting [2], 0.156 µM.
With `CC1(C(=O)N2CCC(O)(Cn3cnc4c(cc(Cl)n4-c4ccc([C@H]5CO[C@H](C6CC6)CN5)cc4)c3=O)CC2)CC1` [Example 104, 6-Chloro-7-(4-((3S,6R)-6-cyclopropylmorpholin-3-yl)phenyl)-3-((4-hydroxy-1-(1-methylcyclopropane-1-carbonyl)piperidin-4-yl)methyl)-3,7-dihydro-4H-pyrrolo[2,3-d]pyrimidin-4-one], the IC50 reads like this: under setting [1], under 0.1 µM; under setting [2], 0.094 µM.
Taken in the same sequence, the figures for `O=C(N1CCC(O)(Cn2cnc3c(cc(Cl)n3-c3ccc([C@@H]4COC5(CCC5)CN4)cc3)c2=O)CC1)C1(C2CC2)CC1` (racemic) [Example 43, 7-(4-(5-Oxa-8-azaspiro[3.5]nonan-7-yl)phenyl)-3-((1-([1,1′-bi(cyclopropane)]-1-carbonyl)-4-hydroxypiperidin-4-yl)methyl)-6-chloro-3,7-dihydro-4H-pyrrolo[2,3-d]pyrimidin-4-one] were under 0.1 µM and 0.05 µM.
For `CC1(C)CN[C@H](c2ccc(-n3c(Cl)cc4c(=O)n(CC5(O)CCN(C(=O)C6(C)CC6)CC5)cnc43)cc2)CO1` (single isomer, unassigned) [Example 98, (R)-6-Chloro-7-(4-(6,6-dimethylmorpholin-3-yl)phenyl)-3-((4-hydroxy-1-(1-methylcyclopropane-1-carbonyl)piperidin-4-yl)methyl)-3,7-dihydro-4H-pyrrolo[2,3-d]pyrimidin-4-one or (S)-6-chloro-7-(4-(6,6-dimethylmorpholin-3-yl)phenyl)-3-((4-hydroxy-1-(1-methylcyclopropane-1-carbonyl)piperidin-4-yl)methyl)-3,7-dihydro-4H-pyrrolo[2,3-d]pyrimidin-4-one], in that order: under 0.1 µM and 0.045 µM.
Taken in the same sequence, the figures for `C[C@@H]1COC[C@H](c2ccc(-n3c(Cl)cc4c(=O)n(CC5(O)CCN(C(=O)c6ccc(Cl)cc6)CC5)cnc43)cc2)N1` (single isomer, unassigned) [Example 27] were 0.1 to 0.25 µM and 0.194 µM.
With `O=C(c1ccc(Cl)cc1)N1CCC(O)(Cn2cnc3c(cc(Cl)n3-c3ccc(C4COCC5(CC5)N4)cc3)c2=O)CC1` (stereo not drawn) [Example 18, 7-(4-(7-Oxa-4-azaspiro[2.5]octan-5-yl)phenyl)-6-chloro-3-((1-(4-chlorobenzoyl)-4-hydroxypiperidin-4-yl)methyl)-3,7-dihydro-4H-pyrrolo[2,3-d]pyrimidin-4-one], the IC50 runs as follows: under setting [1], 0.25 to 2 µM; under setting [2], 0.378 µM.
In the case of `CC1(C)CN[C@@H](c2ccc(-n3c(Cl)cc4c(=O)n(CC5(O)CCN(C(=O)C[C@H](c6ccccc6)C(F)(F)F)CC5)cnc43)cc2)CO1` (mixture of isomers) [Example 10, 6-Chloro-7-(4-((S)-6,6-dimethylmorpholin-3-yl)phenyl)-3-((4-hydroxy-1-((R)-4,4,4-trifluoro-3-phenylbutanoyl)piperidin-4-yl)methyl)-3,7-dihydro-4H-pyrrolo[2,3-d]pyrimidin-4-one and 6-chloro-7-(4-((R)-6,6-dimethylmorpholin-3-yl)phenyl)-3-((4-hydroxy-1-((R)-4,4,4-trifluoro-3-phenylbutanoyl)piperidin-4-yl)methyl)-3,7-dihydro-4H-pyrrolo[2,3-d]pyrimidin-4-one], the IC50 under setting [1] was under 0.1 µM and the IC50 under setting [2] amounted to 0.017 µM.
